Values joined by “and” are separate entries in the source; they are usually repeats but may differ in a detail not shown here. Equal values may be shown once.
Key:
[1] = test system: BCL-xL/PROTAC/VCB ternary complex (HiBit-BCL-xL, HaloTag-VHL); assay: NanoBRET intracellular ternary complex formation in 293T cells, BCL-xL; format: cell-based, human; conditions: for nanoBRET ratio (610/450, background-subtracted), Ave, Bcl-xl: Ave of Read2 and Read3; for nanoBRET ratio (610/450, background-subtracted), Ave, Bcl-xl / nanoBRET ratio (610/450, background-subtracted), Read2, Bcl-xl / nanoBRET ratio (610/450, background-subtracted), Read3, Bcl-xl: triplicate wells
Summary of the method: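 293T cells were transfected with HiBit-BCL-xL or HiBit-BCL-2 plus HaloTag-VHL and incubated overnight with or without HaloTag NanoBRET 618 ligand in 4% FBS Opti-MEM. Serially diluted compounds were applied for 6 h at 37 °C. mBRET ratio from donor emission (450/50 nm) and acceptor emission (610 nm longpass) after Nano-Glo substrate.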

[2] = test system: Hela cells; assay: Viability (MTS) of Hela cells; format: cell-based, human; conditions: for cell viability normalised to control wells (single replicate): in % (unit assumed)
Protocol: Suspension cells were treated 30 min after seeding, whereas adherent cells were allowed to adhere overnight and were then treated. Compound treatments were prepared in complete cell culture medium and 100 µl of 2× treatment-containing medium were added to each well. Complete cell culture medium without treatment was added in control wells, and wells containing medium without cells served as background. The outer wells of the 96-well plate were not used for treatment and were filled with 250 µl of PBS to reduce evaporation of medium from inner wells. Each compound and/or combination was tested at nine different concentrations with three replicates. The cell viability was measured after 72 h by tetrazolium-based MTS assay. MTS reagent (2 mg ml^–1 stock; cat. no. G1111, Promega) was freshly supplemented with phenazine methosulfate (PMS, 0.92 mg ml^–1 stock, cat. no. P9625, Sigma-Aldrich) in 20:1 ratio, and 20 µl of this mixture was added to each control and treatment well. The cells were incubated for 4 h at 37 °C and 5% CO2, and then the absorbance was recorded at 490 nm using Biotek’s Synergy Neo2 multimode plate reader (Biotek). The average absorbance value of background wells was subtracted from absorbance value of each control and treatment well, and percent cell viability ((At/A0) × 100)) was determined in each treatment well, where At is the absorbance value of the treatment well and A0 is the average absorbance value of control wells after background subtraction. The data were expressed as average percentage cell viability and fitted in non-linear regression curves using GraphPad Prism 7 (GraphPad Software, La Jolla, CA, USA).

[3] = MTS absorbance 490, Conc 0.00137174 uM
[4] = MTS absorbance 490, Conc 0.00411523 uM
[5] = MTS absorbance 490, Conc 0.037037 uM
[6] = MTS absorbance 490, Conc 0.111111 uM
[7] = MTS absorbance 490, Conc 0.333333 uM

Structure (SMILES) | nanoBRET ratio (610/450, background-subtracted), Ave, Bcl-xl ([1]; 0.004 uM) | nanoBRET ratio (610/450, background-subtracted), Read2, Bcl-xl ([1]; 0.004 uM) | nanoBRET ratio (610/450, background-subtracted), Read3, Bcl-xl ([1]; 0.004 uM) | nanoBRET ratio (610/450, background-subtracted), Ave, Bcl-xl ([1]; 0.012 uM) | nanoBRET ratio (610/450, background-subtracted), Read2, Bcl-xl ([1]; 0.012 uM) | nanoBRET ratio (610/450, background-subtracted), Read3, Bcl-xl ([1]; 0.012 uM) | nanoBRET ratio (610/450, background-subtracted), Ave, Bcl-xl ([1]; 0.111 uM) | nanoBRET ratio (610/450, background-subtracted), Read2, Bcl-xl ([1]; 0.111 uM) | nanoBRET ratio (610/450, background-subtracted), Read3, Bcl-xl ([1]; 0.111 uM) | nanoBRET ratio (610/450, background-subtracted), Ave, Bcl-xl ([1]; 0.333 uM) | nanoBRET ratio (610/450, background-subtracted), Read2, Bcl-xl ([1]; 0.333 uM) | nanoBRET ratio (610/450, background-subtracted), Read3, Bcl-xl ([1]; 0.333 uM) | nanoBRET ratio (610/450, background-subtracted), Ave, Bcl-xl ([1]; 1 uM) | cell viability normalised to control wells (single replicate) [2, 3] | cell viability normalised to control wells (single replicate) [2, 4] | cell viability normalised to control wells (single replicate) [2, 5] | cell viability normalised to control wells (single replicate) [2, 6] | cell viability normalised to control wells (single replicate) [2, 7] | cell viability normalised to control wells (single replicate) ([2]; MTS absorbance 490, Conc 1 uM) | cell viability normalised to control wells (single replicate) ([2]; MTS absorbance 490, Conc 3 uM) | also measured
Cc1ncsc1-c1ccc([C@H](C)NC(=O)[C@@H]2C[C@@H](O)CN2C(=O)[C@@H](NC(=O)CCCCCCC(=O)N2CCN(C[C@@]3(C)CCC(c4ccc(Cl)cc4)=C(CN4CCN(c5ccc(C(=O)NS(=O)(=O)c6ccc(N[C@H](CCN7CCOCC7)CSc7ccccc7)c(S(=O)(=O)C(F)(F)F)c6)cc5)CC4)C3)CC2)C(C)(C)C)cc1 [753a] | 6.588 and 5.267 and 6.114 | 6.808 and 5.756 and 5.973 | 6.368 and 4.777 and 6.254 | 7.772 and 5.901 and 5.719 | 8.034 and 6.13 and 5.719 | 7.511 and 5.673 and 5.719 | 7.6 and 7.528 and 6.707 | 8.597 and 7.785 and 7.564 | 6.603 and 7.27 and 5.849 | 7.771 and 7.613 and 7.591 | 8.649 and 8.045 and 7.293 | 6.893 and 7.18 and 7.888 | 6.777 and 6.861 and 6.637 |  |  |  |  |  |  |  | nanoBRET ratio (610/450, background-subtracted), Read2, Bcl-xl ([1]; 1 uM): 6.613 and 6.856 and 7.09; nanoBRET ratio (610/450, background-subtracted), Read3, Bcl-xl ([1]; 1 uM): 6.94 and 6.866 and 6.184; nanoBRET ratio (610/450, background-subtracted), Ave, Bcl-xl ([1]; 3 uM): 7.07 and 7.184 and 6.888; nanoBRET ratio (610/450, background-subtracted), Read2, Bcl-xl ([1]; 3 uM): 7.24 and 8.026 and 7.182; nanoBRET ratio (610/450, background-subtracted), Read3, Bcl-xl ([1]; 3 uM): 6.9 and 6.341 and 6.5933
Cc1ncsc1-c1ccc([C@H](C)NC(=O)[C@@H]2C[C@@H](O)CN2C(=O)[C@@H](NC(=O)CCCCCCC(=O)N2CCN(C[C@]3(C)CCC(c4ccc(Cl)cc4)=C(CN4CCN(c5ccc(C(=O)NS(=O)(=O)c6ccc(N[C@H](CCN7CCOCC7)CSc7ccccc7)c(S(=O)(=O)C(F)(F)F)c6)cc5)CC4)C3)CC2)C(C)(C)C)cc1 [753b] | 6.669 and 7.034 and 7.222 | 6.7548 and 7.529 and 7.533 | 6.584 and 6.539 and 6.911 | 7.369 and 7.678 and 8.359 | 7.541 and 7.384 and 8.298 | 7.198 and 7.973 and 8.421 | 9.509 and 8.705 and 10.1696 | 10.2238 and 9.035 and 9.873 | 8.794 and 8.375 and 10.4663 | 10.2723 and 9.168 and 8.741 | 10.5785 and 8.953 and 8.643 | 9.9661 and 9.383 and 8.84 | 8.944 and 10.7233 and 9.842 | 103.801 and 94.6965 and 107.009 | 98.1647 and 87.1532 and 93.8295 | 94.6965 and 88.7139 and 102.066 | 90.1012 and 81.2572 and 107.876 | 79.8699 and 97.9913 and 103.627 | 76.4884 and 93.6561 and 98.5983 | 75.7081 and 83.5116 and 103.801 | nanoBRET ratio (610/450, background-subtracted), Read2, Bcl-xl ([1]; 1 uM): 9.3741 and 12.2305 and 10.3071; nanoBRET ratio (610/450, background-subtracted), Read3, Bcl-xl ([1]; 1 uM): 8.514 and 9.216 and 9.3776; nanoBRET ratio (610/450, background-subtracted), Ave, Bcl-xl ([1]; 3 uM): 8.924 and 8.687 and 9.846; nanoBRET ratio (610/450, background-subtracted), Read2, Bcl-xl ([1]; 3 uM): 9.65 and 9.358 and 10.5304; nanoBRET ratio (610/450, background-subtracted), Read3, Bcl-xl ([1]; 3 uM): 8.197 and 8.015 and 9.162; intracellular ternary complex formation with BCL-xL (in words) ([1]; NanoBRET, 293T cells, 6 h): much higher activity to induce the ternary complex formation with both BCL-xL and BCL-2 relative to 753a; cell viability normalised to control wells (mean of three replicates) [2, 3]: 101.835; cell viability normalised to control wells (mean of three replicates) [2, 4]: 93.0491; cell viability normalised to control wells (mean of three replicates) [2, 5]: 95.159; cell viability normalised to control wells (mean of three replicates) [2, 6]: 93.078; cell viability normalised to control wells (mean of three replicates) [2, 7]: 93.8295; cell viability normalised to control wells (mean of three replicates) ([2]; MTS absorbance 490, Conc 1 uM): 89.5809; cell viability normalised to control wells (mean of three replicates) ([2]; MTS absorbance 490, Conc 3 uM): 87.6734
CC1(C)CCC(c2ccc(Cl)cc2)=C(CN2CCN(c3ccc(C(=O)NS(=O)(=O)c4ccc(N[C@H](CCN5CCOCC5)CSc5ccccc5)c(S(=O)(=O)C(F)(F)F)c4)cc3)CC2)C1 [ABT263, navitoclax] |  |  |  |  |  |  |  |  |  |  |  |  |  | 109.176 and 100.419 | 94.0029 and 98.8584 | 90.3613 and 97.2977 | 79.4364 and 85.7659 and 104.581 | 80.9971 and 79.263 | 85.9393 and 80.3035 | 78.7428 and 78.4827 | 
Cc1ncsc1-c1ccc([C@H](C)NC(=O)[C@@H]2C[C@@H](O)CN2C(=O)[C@@H](NC(=O)CCCCCC(=O)N2CCN(CC[C@H](CSc3ccccc3)Nc3ccc(S(=O)(=O)NC(=O)c4ccc(N5CCN(CC6=C(c7ccc(Cl)cc7)CCC(C)(C)C6)CC5)cc4)cc3S(=O)(=O)C(F)(F)F)CC2)C(C)(C)C)cc1 [DT2216] |  |  |  |  |  |  |  |  |  |  |  |  |  | 91.7776 | 92.3987 and 92.7536 | 98.4324 and 86.0988 | 97.9 and 88.8495 | 93.1973 and 104.022 | 83.5256 and 94.1733 | 80.7749 | 
